These results are taken from patent publication US9321718B2 (CHROMA THERAPEUTICS LTD., priority 2010, dated 2016).

The target in assay [1] is T1, human recombinant his-tagged HSP90α (Homo sapiens, UniProt P07900).
T1 construct: purchased Prospec Technogene #HSP90
Nature of the assay: HSP90 enzyme assay (HTRF, competition with biotinylated Geldanamycin). Type of assay: binding. The settings on record: IC50 range; read-out: Enzyme Assay. The text has this:
An HTRF (homogeneous time resolved fluorescence) assay is used to measure the interaction of the compounds with HSP90. The assay measures binding of biotinylated Geldanamycin (bio-GM; Biomol, #EI-341, lot: A9199a) to human recombinant his-tagged HSP90α (HSP90; Prospec Technogene, #HSP90, lot: 260HSP9001). A signal is generated by fluorescence resonance energy transfer from an Europium-cryptate labeled anti-his antibody (anti-his-K; Cisbio International, #61HISKLA, lot: 33V) via the HSP90-GM-biotin complex to a fluorescence acceptor (allophycocyanin) linked to streptavidin (SA-XL; Cisbio International, #610SAXLB, lot: 089).
Unlabeled GM or compounds compete with the bio-GM for binding to HSP90 resulting in reduced fluorescence energy transfer/assay signal.
A preformed (1 hour incubation) complex of HSP90 with the anti-his-K is added to the compound solution in a 384 well microplate (Corning, #3710) and incubated for 15 minutes. A preformed (1 hour incubation) complex of bio-GM with the SA-XL is added to the wells and incubated for 20 hours. All incubations are performed at room temperature. The final assay volume is 50 μl/well. The final concentrations in the assay are: 50 mM Hepes pH 7.3, 50 mM NaCl, 100 mM KF, 1 mM EDTA, 1 mM DTT, 0.1% Triton-X-100, […] HSP90, 40 nM SA-XL, 40 nM bio-GM. Test compounds are dissolved in DMSO, prediluted in assay buffer and tested at a final concentration between 5000 nM and 0.3 nM. The resulting DMSO concentration is 0.5% and included in all controls. High controls are without test compounds, low controls without test compounds, without HSP90 and without bio-GM. As a reference inhibitor unlabeled GM is used in the same concentrations as the test compounds.
Inhibition is calculated compared to the assay controls using an Excel spreadsheet (Microsoft). IC50 values are calculated by non-linear least squares fitting to the standard dose-response model using GraphPad Prism (GraphPad Software Inc).
For orientation: In TR-FRET formats the signal depends on donor and acceptor labels being close together.

Assay [2] relates to TNFα release from LPS stimulated THP-1 (hCE-1 +ve) cells. Briefly: LPS-stimulation of THP-1 cells (TNF-α release). Type of assay: cell-based, human. To be noted: Homo sapiens, THP-1; IC50 range; TNF-α after LPS 1 μg/ml, 6 hours; read-out: THP-1 Assay. On the procedure: THP-1 cells are plated in […] at a density of 4×10^4 cells/well in V-bottomed 96 well tissue culture treated plates and incubated at 37° C. in 5% CO2 for 16 hours. 2 Hours after the addition of the inhibitor in 100 μl of tissue culture media, the cells are stimulated with LPS (E. Coli strain 005:B5, Sigma) at a final concentration of 1 μg/ml and incubated at 37° C. in 5% CO2 for 6 hours. TNF-α levels are measured from cell-free supernatants by sandwich ELISA (R&D Systems #QTA00B).

In the case of `CC(C)C[C@H](NC1CCN(C(=O)c2cc(C(C)C)c(O)cc2O)CC1)C(=O)OC(C)(C)C` [Example 6, tert-butyl N-(1-{[2,4-dihydroxy-5-(propan-2-yl)phenyl]carbonyl}piperidin-4-yl)-L-leucinate], the IC50 in assay [1] is under 100 nM; in assay [2], over 1000 nM.
The like results for `CC(C)C[C@H](NC1CCCN(C(=O)c2cc(C(C)C)c(O)cc2O)C1)C(=O)OC1CCCC1` (stereo partly drawn) [Example 7, cyclopentyl N-(1-{[2,4-dihydroxy-5-(propan-2-yl)phenyl]carbonyl}piperidin-3-yl)-L-leucinate] were, in that order, 100 to 1000 nM and over 1000 nM.
Regarding `CC(C)c1cc(C(=O)N2CCC(N[C@@H](C)C(=O)OC(C)(C)C)CC2)c(O)cc1O` [Example 8, tert-butyl N-(1-{[2,4-dihydroxy-5-(propan-2-yl)phenyl]carbonyl}piperidin-4-yl)-L-alaninate], the values for the IC50 in assay [1] and in assay [2] were under 100 nM and over 1000 nM, respectively.
Take `CC(C)c1cc(C(=O)N2CCC(N[C@@H](COC(C)(C)C)C(=O)OC(C)(C)C)CC2)c(O)cc1O` [Example 11, tert-butyl O-tert-butyl-N-(1-{[2,4-dihydroxy-5-(propan-2-yl)phenyl]carbonyl}piperidin-4-yl)-L-serinate]: the IC50 was under 100 nM in assay [1] and over 1000 nM in assay [2].
The like results for `CC(C)C[C@@H](NC1CCN(C(=O)c2cc(C(C)C)c(O)cc2O)CC1)C(=O)OC1CCCC1` [Example 12, cyclopentyl N-(1-{[2,4-dihydroxy-5-(propan-2-yl)phenyl]carbonyl}piperidin-4-yl)-D-leucinate] were, in that order, under 100 nM and over 1000 nM.
Regarding `CC(C)c1cc(C(=O)N2CCC(N[C@H](C(=O)OC3CCCC3)C3CCCCC3)CC2)c(O)cc1O` [Example 14, cyclopentyl (2S)-cyclohexyl[(1-{[2,4-dihydroxy-5-(propan-2-yl)phenyl]carbonyl}piperidin-4-yl)amino]ethanoate], the IC50 in assay [1] was 100 to 1000 nM; in assay [2], over 1000 nM.
The like results for `CC(C)c1cc(C(=O)N2CCC(N[C@@H](Cc3ccccc3)C(=O)OC(C)(C)C)CC2)c(O)cc1O` [Example 16, tert-butyl N-(1-{[2,4-dihydroxy-5-(propan-2-yl)phenyl]carbonyl}piperidin-4-yl)-L-phenylalaninate] were, in that order, under 100 nM and over 1000 nM.
The like results for `CC(C)c1cc(C(=O)N2CCC(N[C@@H](CO)C(=O)OC3CCCC3)CC2)c(O)cc1O` [Example 18, cyclopentyl N-(1-{[2,4-dihydroxy-5-(propan-2-yl)phenyl]carbonyl}piperidin-4-yl)-L-serinate] were, in that order, under 100 nM and 100 to 1000 nM.
The like results for `CC(C)C[C@@H](NC1CCN(C(=O)c2cc(C(C)C)c(O)cc2O)CC1)C(=O)OC(C)(C)C` [Example 19, tert-butyl N-(1-{[2,4-dihydroxy-5-(propan-2-yl)phenyl]carbonyl}piperidin-4-yl)-D-leucinate] were, in that order, under 100 nM and over 1000 nM.
In the case of `CC(C)C[C@H](NCC1CCN(C(=O)c2cc(C(C)C)c(O)cc2O)CC1)C(=O)OC(C)(C)C` [Example 24, tert-butyl N-[(1-{[2,4-dihydroxy-5-(propan-2-yl)phenyl]carbonyl}piperidin-4-yl)methyl]-L-leucinate], the values for the IC50 in assay [1] and in assay [2] were under 100 nM and over 1000 nM, respectively.
The like results for `CC(C)c1cc(C(=O)N2CCC(CN[C@@H](Cc3ccccc3)C(=O)OC(C)(C)C)CC2)c(O)cc1O` [Example 25, tert-butyl N-[(1-{[2,4-dihydroxy-5-(propan-2-yl)phenyl]carbonyl}piperidin-4-yl)methyl]-L-phenylalaninate] were, in that order, under 100 nM and over 1000 nM.
The like results for `CC(C)c1cc(C(=O)N2CCC(CN[C@@H](C)C(=O)OC(C)(C)C)CC2)c(O)cc1O` [Example 26, tert-butyl N-[(1-{[2,4-dihydroxy-5-(propan-2-yl)phenyl]carbonyl}piperidin-4-yl)methyl]-L-alaninate] were, in that order, under 100 nM and over 1000 nM.
